# Experimental data from ChEMBL document CHEMBL1144308, “Novel CDK inhibition profiles of structurally varied 1-aza-9-oxafluorenes” (Bioorg Med Chem Lett, 2005).
# Key:
# Format in all cases: protein-complex assay
# [1] = biological target: T1, Cyclin-dependent kinase 2/cyclin E1 (Homo sapiens, UniProt P24941); experiment: Inhibitory concentration tested against Cyclin dependant kinase 2-cyclinE; ND: not determined
# [2] = biological target: Cyclin-dependent kinase 1/cyclin B1 (Homo sapiens, UniProt P06493); experiment: Inhibitory concentration tested against Cyclin dependant kinase 1-cyclinB
# Chain of Cyclin-dependent kinase 1/cyclin B1 (P06493 whole entry): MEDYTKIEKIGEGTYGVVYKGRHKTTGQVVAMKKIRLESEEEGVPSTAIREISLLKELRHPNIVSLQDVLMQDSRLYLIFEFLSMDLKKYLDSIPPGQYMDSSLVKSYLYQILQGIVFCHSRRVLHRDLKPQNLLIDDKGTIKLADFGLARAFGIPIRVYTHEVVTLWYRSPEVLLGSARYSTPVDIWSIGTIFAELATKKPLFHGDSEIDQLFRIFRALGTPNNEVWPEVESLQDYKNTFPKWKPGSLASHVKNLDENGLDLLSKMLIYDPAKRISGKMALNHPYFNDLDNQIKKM
# Chain of Cyclin-dependent kinase 1/cyclin B1 (P14635 whole entry, further chain): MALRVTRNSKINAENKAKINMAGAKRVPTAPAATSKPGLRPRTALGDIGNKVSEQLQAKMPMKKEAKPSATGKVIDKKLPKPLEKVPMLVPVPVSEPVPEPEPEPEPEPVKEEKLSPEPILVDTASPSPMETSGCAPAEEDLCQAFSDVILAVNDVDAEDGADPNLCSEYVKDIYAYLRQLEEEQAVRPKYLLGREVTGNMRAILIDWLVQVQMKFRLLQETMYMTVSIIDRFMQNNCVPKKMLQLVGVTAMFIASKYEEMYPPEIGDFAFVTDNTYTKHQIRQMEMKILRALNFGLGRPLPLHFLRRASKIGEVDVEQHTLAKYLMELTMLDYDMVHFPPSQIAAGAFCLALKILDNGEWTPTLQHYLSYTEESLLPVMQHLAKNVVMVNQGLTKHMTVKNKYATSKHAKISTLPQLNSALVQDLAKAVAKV
# [3] = biological target: T2, Cyclin-dependent kinase 4/cyclin D1 (Homo sapiens, UniProt P11802); experiment: Inhibitory concentration tested against Cyclin dependant kinase 4-cyclinD1; ND: not determined
# T2 sequence (P11802 whole entry): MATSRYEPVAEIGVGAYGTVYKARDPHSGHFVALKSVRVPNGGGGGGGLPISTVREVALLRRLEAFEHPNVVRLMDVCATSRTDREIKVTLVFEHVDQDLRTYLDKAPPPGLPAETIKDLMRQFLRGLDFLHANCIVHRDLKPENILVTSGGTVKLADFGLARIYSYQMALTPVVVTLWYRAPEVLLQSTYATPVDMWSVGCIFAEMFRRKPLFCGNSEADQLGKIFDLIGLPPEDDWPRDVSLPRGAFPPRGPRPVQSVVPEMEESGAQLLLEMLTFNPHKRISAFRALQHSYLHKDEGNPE
# T2 sequence (P24385 whole entry, further chain): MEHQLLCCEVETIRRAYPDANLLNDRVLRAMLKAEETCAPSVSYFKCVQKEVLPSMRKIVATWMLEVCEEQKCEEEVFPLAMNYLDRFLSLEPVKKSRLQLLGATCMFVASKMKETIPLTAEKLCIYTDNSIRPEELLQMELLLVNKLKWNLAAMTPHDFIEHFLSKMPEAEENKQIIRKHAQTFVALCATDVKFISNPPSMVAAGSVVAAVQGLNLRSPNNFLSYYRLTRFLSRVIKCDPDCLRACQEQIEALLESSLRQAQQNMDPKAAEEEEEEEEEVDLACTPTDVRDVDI
# [4] = biological target: Cyclin-dependent kinase 5/CDK5 activator 1 (Homo sapiens, UniProt Q00535+Q15078); experiment: Inhibitory concentration tested against Cyclin-dependent kinase 5; NA: not active
# Chain of Cyclin-dependent kinase 5/CDK5 activator 1 (Homo sapiens, UniProt Q00535+Q15078) (Q00535 whole entry): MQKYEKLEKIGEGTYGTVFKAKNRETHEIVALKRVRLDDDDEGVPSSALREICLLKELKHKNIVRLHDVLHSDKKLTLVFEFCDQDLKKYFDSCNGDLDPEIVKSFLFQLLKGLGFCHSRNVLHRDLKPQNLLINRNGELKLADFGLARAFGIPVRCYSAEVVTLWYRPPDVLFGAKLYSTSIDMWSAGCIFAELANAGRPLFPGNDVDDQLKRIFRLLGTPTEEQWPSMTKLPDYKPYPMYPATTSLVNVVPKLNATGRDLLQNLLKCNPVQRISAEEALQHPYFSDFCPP
# Chain of Cyclin-dependent kinase 5/CDK5 activator 1 (Homo sapiens, UniProt Q00535+Q15078) (Q15078 whole entry): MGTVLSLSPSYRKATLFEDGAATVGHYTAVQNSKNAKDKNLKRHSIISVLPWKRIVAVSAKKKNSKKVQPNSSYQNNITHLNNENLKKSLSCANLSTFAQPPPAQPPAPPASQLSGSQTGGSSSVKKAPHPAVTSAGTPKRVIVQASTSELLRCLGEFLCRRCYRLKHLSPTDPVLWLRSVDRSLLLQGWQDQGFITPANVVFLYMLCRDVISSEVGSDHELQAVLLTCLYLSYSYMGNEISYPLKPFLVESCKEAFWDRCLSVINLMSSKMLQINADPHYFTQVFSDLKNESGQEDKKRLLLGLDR
# [5] = biological target: T2, Cyclin-dependent kinase 4/cyclin D1; experiment: Inhibitory concentration tested against Cyclin dependant kinase 4-cyclinD1
# [6] = biological target: T1, Cyclin-dependent kinase 2/cyclin E1; experiment: Inhibitory concentration tested against Cyclin dependant kinase 2-cyclinE
# [7] = biological target: Cyclin-dependent kinase 5/CDK5 activator 1 (Homo sapiens, UniProt Q00535); experiment: Inhibitory concentration tested against Cyclin-dependent kinase 5
# Chain of Cyclin-dependent kinase 5/CDK5 activator 1 (Homo sapiens, UniProt Q00535) (Q00535 whole entry): as the sequence (Q00535 whole entry) above
# Chain of Cyclin-dependent kinase 5/CDK5 activator 1 (Homo sapiens, UniProt Q00535) (Q15078 whole entry, further chain): as the sequence (Q15078 whole entry) above
IC50 [4],IC50 [5],IC50 [6],SMILES,IC50 [1],IC50 [2],IC50 [3],IC50 [7]
–,–,–,CC(=O)c1cnc2oc3ccc(O)cc3c2c1-c1ccccc1,> 100 µM,4.2 µM,> 100 µM,–
Not Active,> 100 µM,> 100 µM,Cc1cnc2oc3ccc(O)cc3c2c1-c1ccccc1,–,> 100 µM,–,–
–,> 100 µM,> 100 µM,CCOc1cnc2oc3ccc(O)cc3c2c1-c1ccccc1,–,> 100 µM,–,5.9 µM
Not Active,> 100 µM,> 100 µM,Oc1ccc2oc3ncc(Cl)c(-c4ccccc4)c3c2c1,–,> 100 µM,–,–

SMILES,IC50 [4],IC50 [5],IC50 [6],IC50 [1],IC50 [2],IC50 [3],IC50 [7]
COc1cnc2oc3ccc(O)cc3c2c1-c1ccccc1,–,> 100 µM,80 µM,–,64.3 µM,–,6.3 µM
Oc1ccc2oc3ncc(Br)c(-c4ccccc4)c3c2c1,Not Active,28.7 µM,3.2 µM,–,70.7 µM,–,–
